In US20110081348A1, “FUNGAL SIGNALLING AND METABOLIC ENZYMES” (priority 2004, published 2011):

Target: recombinant truncated ILV34 (Aspergillus fumigatus, UniProt Q4X099)
Assay: biochemical
Experimental: The assay for ILV34 is based upon the ability of this enzyme to dehydrate dihydroxyacid substrates to a keto acid. […] The appearance of the keto acid product can be monitored directly at 240 nm; alternatively it can be reacted with semicarbazide and sodium acetate and monitored at 250 nm.
Assays were carried out in 96- or 384-well plates. […] Samples were incubated at room temperature and at suitable intervals the reaction was stopped and developed by the addition of 25 p. 1 semicarbazide solution (1.26% w/v semicarbazide in 1.89% w/v sodium acetate solution). The samples were incubated for 15 mins after the final semicarbazide/sodium acetate addition and then read at 250 nm.

Chain of recombinant truncated ILV34 (Q4X099 30-606): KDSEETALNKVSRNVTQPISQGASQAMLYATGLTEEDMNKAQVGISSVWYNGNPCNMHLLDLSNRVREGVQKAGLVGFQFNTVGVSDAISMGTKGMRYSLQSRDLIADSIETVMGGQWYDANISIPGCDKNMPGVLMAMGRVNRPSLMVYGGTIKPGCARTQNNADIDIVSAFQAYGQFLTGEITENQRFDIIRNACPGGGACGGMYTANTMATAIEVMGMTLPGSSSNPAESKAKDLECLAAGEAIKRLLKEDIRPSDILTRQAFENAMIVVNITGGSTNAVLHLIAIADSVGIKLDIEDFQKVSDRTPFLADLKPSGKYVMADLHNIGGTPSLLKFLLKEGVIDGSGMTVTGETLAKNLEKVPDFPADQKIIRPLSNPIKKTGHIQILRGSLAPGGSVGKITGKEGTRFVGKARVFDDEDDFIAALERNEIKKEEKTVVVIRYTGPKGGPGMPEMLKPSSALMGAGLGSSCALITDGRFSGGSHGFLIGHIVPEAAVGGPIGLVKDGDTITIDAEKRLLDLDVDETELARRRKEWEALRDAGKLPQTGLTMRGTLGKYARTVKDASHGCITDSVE

Question: `CC(C)C(O)C(=O)O` (stereo not shown) [2-hydroxy-3-methylbutyric acid] was tested. Which IC50 did it give?
Answer: ~10 mM
